Results taken from patent EP0144170B1, “Biosynthesis of unnatural cephalosporins” (QUEEN'S UNIVERSITY AT KINGSTON, priority 1983, dated 1985).
Values joined by “and” are separate entries in the source; they are usually repeats but may differ in a detail not shown here. Equal entries are not always repeated.

Test system: Escherichia coli. ess.
Experiment: Agar diffusion bioassay of diluted original antibiotic solutions (Example 9)
Format: cell-based
Parameters: unit not given here
Settings: in duplicate, indicator organism Escherichia coli. ess.
Procedure: Example 2(a) above was repeated using SCV (15) as the starting material. [drawing 27] Antibiotic in reaction mixtures was estimated by the agar diffusion method. Cyclization reaction mixtures were bioassayed using Micrococcus luteus ATCC 9341 and Escherichia coli Ess as indicator organisms. Ring expansion reaction mixtures were bioassayed using E. coli Ess as indicator organism in agar plates supplemented with penicillinase at 2 x 10^5 units/ml.
One hour after the antibiotics were administered blood was collected from the rats into sterile citrate containing syringes. Blood samples were centrifuged to sediment red blood cells and 20 micro litre amounts of plasma were bioassayed in duplicate using Escherichia coli. ess. as the indicator organism. Original antibiotic solutions were also diluted and bioassayed in duplicate.

| SMILES | bioassay of original antibiotic solution (1 microgram per millilitre) | bioassay of original antibiotic solution (10 micrograms per millilitre) |
| --- | --- | --- |
| CC1=C(C(=O)O)N2C(=O)[C@@H](NC(=O)CSCC(N)C(=O)O)[C@H]2SC1 (stereo partly shown) [(17), Carboxymethylcysteinyl-Desacetoxycephalosporin C] | 17.5 and 17.0 | 33 |
| CC(=O)OCC1=C(C(=O)[O-])N2C(=O)[C@@H](NC(=O)CCCC(N)C(=O)O)[C@H]2SC1.[Na+] (stereo partly shown) [Na-Ceph-C, reference compound] | 8.8 | 23.5 |
